# Key:
# blackgrass = assay: Test C postemergence herbicide test; assay type: in vivo, Alopecurus myosuroides; conditions: for Blackgrass plant response rating: 500 g ai/ha
# Protocol: (§1) At the same time, plants selected from these crop and weed species and also winter barley (Hordeum vulgare L.), blackgrass (Alopecurus myosuroides Huds.), canarygrass (Phalaris minor Retz.), chickweed (Stellaria media (L.) Vill.), downy bromegrass (Bromus tectorum L.), green foxtail (Setaria viridis (L.) Beauv.), Italian ryegrass (Lolium multiflorum Lam.), wheat (Triticum aestivum L.), wild oat (Avenafatua L.) and windgrass (Apera spica-venti (L.) Beauv.) were treated with postemergence applications of some of the test chemicals formulated in the same manner. Plants ranged in height from 2 to 18 cm (1- to 4-leaf stage) for postemergence treatments. Plant species in the flooded paddy test consisted of rice (Oryza sativa), smallflower umbrella sedge (Cyperus difformis L.), ducksalad (Heteranthera limosa (Sw.) Willd.) and barnyardgrass (Echinochloa crus-galli (L.) Beauv.) grown to the 2-leaf stage for testing. Treated plants and controls were maintained in a greenhouse for 12 to 14 days, after which time all species were compared to controls and visually evaluated. Plant response ratings, summarized in Table C, are based on a scale of 0 to 100 where 0 is no effect and 100 is complete control. A dash (-) response means no test result.
# Italian ryegrass [1] = assay: Test C postemergence herbicide test; assay type: in vivo, Lolium multiflorum
# Protocol: as §1
# windgrass = assay: Test C postemergence herbicide test; assay type: in vivo, Apera spica-venti
# Protocol: as §1
# green foxtail = assay: Test E pre-/postemergence herbicide test; assay type: in vivo, Setaria viridis; conditions: Preemergence
# Excerpt: (§2) Seeds of plant species selected from bipinnate beggarticks (Bidens bipinnata L.), hairy beggarticks (Bidens radiata Thuill.), bermudagrass (Cynodon dactylon (L.) Pers.), Surinam grass (Urochloa decumbens (Staph) R. D. Webster, previously named Brachiaria decumbens Stapf), large crabgrass (Digitaria sanguinalis (L.) Scop.), green foxtail (Setaria viridis (L.) P. Beauv.), goosegrass (Eleusine indica (L.) Gaertn.), johnsongrass (Sorghum halepense (L.) Pers.), kochia (Kochia scoparia (L.) Schrad.), pitted morningglory (Ipomoea lacunosa L.), purple nutsedge (Cyperus rotundus L.), common ragweed (Ambrosia elatior L.), mustard (Brassica nigra (L.) W. D. J. Koch), guineagrass (Panicum maximum Jacq.), dallisgrass (Paspalum dilatatum Poir.), barnyardgrass (Echinochloa crus-galli (L). P. Beauv.), southern sandbur (Cenchrus echinatus L.), common sowthistle (Sonchus oleraceous L.), prickly sida (Sida spinosa L.), Italian ryegrass (Lolium multiflorum Lam.), common purslane (Portulaca oleracea L.), broadleaf signalgrass (Brachiaria platyphylla (Griseb.) Nash), common groundsel (Senecio vulgaris L.), common chickweed (Stellaria media (L.) Vill/Cyr.), tropical spiderwort (Commelina benghalensis L.), annual bluegrass (Poa annua L.), downy bromegrass (Bromus tectorum L.), itchgrass (Rottboellia cochinchinensis (L.) L.f.), quackgrass (Elytrigia repens (L.) Nevski), Canada horseweed (Erigeron Canadensis L.), field bindweed (Convolvulus arvensis L.), spotted spurge (Euphorbia maculata L.), common mallow (Malva sylvestris (=s silvestris) L.), and Russian thistle (Salsola kali L. ssp. Ruthenica (Iljin) Soo) were planted and treated preemergence with test chemicals formulated in a non-phytotoxic solvent mixture which included a surfactant.
# (§3) At the same time, plants selected from these weed species were treated with postemergence applications of some of the test chemicals formulated in the same manner. Plants ranged in height from 2 to 18 cm (1- to 4-leaf stage) for postemergence treatments. Treated plants and controls were maintained in a greenhouse for 12 to 14 days, after which time all species were compared to controls and visually evaluated. Plant response ratings, summarized in Table E, are based on a scale of 0 to 100 where 0 is no effect and 100 is complete control. A dash (-) response means no test result.
# bermudagrass = assay: Test E pre-/postemergence herbicide test; assay type: in vivo, Cynodon dactylon; conditions: Preemergence
# Excerpt: as §2, §3
# Canada horseweed = assay: Test E pre-/postemergence herbicide test; assay type: in vivo, Erigeron Canadensis; conditions: Preemergence
# Excerpt: as §2, §3
# field bindweed = assay: Test E pre-/postemergence herbicide test; assay type: in vivo, Convolvulus arvensis; conditions: Preemergence
# Excerpt: as §2, §3
# southern sandbur = assay: Test E pre-/postemergence herbicide test; assay type: in vivo, Cenchrus echinatus; conditions: Preemergence
# Excerpt: as §2, §3
# common ragweed = assay: Test E pre-/postemergence herbicide test; assay type: in vivo, Ambrosia elatior; conditions: Preemergence
# Excerpt: as §2, §3
# Italian ryegrass [2] = assay: Test E pre-/postemergence herbicide test; assay type: in vivo, Lolium multiflorum; conditions: Preemergence
# Excerpt: as §2, §3
# guineagrass = assay: Test E pre-/postemergence herbicide test; assay type: in vivo, Panicum maximum; conditions: Preemergence
# Excerpt: as §2, §3
# [3] = Postemergence, 250 g ai/ha, scale 0 to 100, 0 no effect, 100 complete control
# [4] = postemergence, 125 g ai/ha, scale 0 to 100
# [5] = postemergence, 62 g ai/ha, scale 0 to 100
# [6] = Postemergence, 500 g ai/ha, scale 0 to 100
# [7] = postemergence, 31 g ai/ha, scale 0 to 100
# [8] = Postemergence, 500 g ai/ha, scale 0 to 100, 0 no effect, 100 complete control
# [9] = 250 g ai/ha, scale 0 (no effect) to 100 (complete control)
# [10] = 500 g ai/ha, scale 0 (no effect) to 100 (complete control)
compound,measurement,setting,value
CCn1nc(C(C)(C)C)cc1C(=O)Nc1cccc(OC(F)F)c1 [Compound 332],Blackgrass plant response rating,"blackgrass; Postemergence, scale 0 to 100",70
same,"Plant response rating, Blackgrass",blackgrass; [3],100
same,"Plant response rating, Blackgrass",blackgrass; [4],70
same,"Plant response rating, Blackgrass",blackgrass; [5],60
same,"Ryegrass, Italian plant response rating",Italian ryegrass [1]; [6],70
same,"Plant response rating, Ryegrass, Italian",Italian ryegrass [1]; [3],70
same,"Plant response rating, Ryegrass, Italian",Italian ryegrass [1]; [4],60
same,"Plant response rating, Ryegrass, Italian",Italian ryegrass [1]; [5],60
same,Windgrass plant response rating,windgrass; [6],75
same,"Plant response rating, Windgrass",windgrass; [3],65
same,"Plant response rating, Windgrass",windgrass; [4],60
same,"Plant response rating, Windgrass",windgrass; [5],35
CCn1nc(C(C)(C)C)cc1C(=O)Nc1cc(C(=S)N(C)C)ccn1 [Compound 334],"Plant response rating, Blackgrass",blackgrass; [3],95
same,"Plant response rating, Blackgrass",blackgrass; [4],95
same,"Plant response rating, Blackgrass",blackgrass; [7],75
same,"Plant response rating, Blackgrass",blackgrass; [5],90
same,"Plant response rating, Ryegrass, Italian",Italian ryegrass [1]; [3],45
same,"Plant response rating, Ryegrass, Italian",Italian ryegrass [1]; [4],35
same,"Plant response rating, Ryegrass, Italian",Italian ryegrass [1]; [5],30
same,"Plant response rating, Windgrass",windgrass; [3],75
same,"Plant response rating, Windgrass",windgrass; [4],60
same,"Plant response rating, Windgrass",windgrass; [5],60
CCNC(=O)c1ccc(F)c(NC(=O)c2c3c(nn2CC)C(C)(C)CC3)c1 [Compound 353],Blackgrass plant response rating,"blackgrass; Postemergence, scale 0 to 100",70
same,"Plant response rating, Blackgrass",blackgrass; [3],60
same,"Plant response rating, Blackgrass",blackgrass; [4],20
same,"Plant response rating, Blackgrass",blackgrass; [5],0
same,"Plant response rating, Ryegrass, Italian",Italian ryegrass [1]; [3],15
same,"Plant response rating, Ryegrass, Italian",Italian ryegrass [1]; [8],20
same,"Plant response rating, Ryegrass, Italian",Italian ryegrass [1]; [4],15
same,"Plant response rating, Ryegrass, Italian",Italian ryegrass [1]; [5],10
same,"Plant response rating, Windgrass",windgrass; [3],10
same,"Plant response rating, Windgrass",windgrass; [8],10
same,"Plant response rating, Windgrass",windgrass; [4],10
same,"Plant response rating, Windgrass",windgrass; [5],0
CCOC(=O)c1cccc(NC(=O)c2nn(C(C)(C)CC)nc2CC)c1 [Compound 375],"Plant response rating, Blackgrass",blackgrass; [3],55
same,"Plant response rating, Blackgrass",blackgrass; [4],45
same,"Plant response rating, Blackgrass",blackgrass; [7],30
same,"Plant response rating, Blackgrass",blackgrass; [5],35
same,"Plant response rating, Ryegrass, Italian",Italian ryegrass [1]; [4],65
same,"Plant response rating, Ryegrass, Italian",Italian ryegrass [1]; [5],65
same,"Plant response rating, Windgrass",windgrass; [4],60
same,"Plant response rating, Windgrass",windgrass; [5],40
CCc1nn(C(C)(C)C)nc1C(=O)Nc1cccc(C(=O)N(C)CC)c1 [Compound 384],"Plant response rating, Blackgrass",blackgrass; [3],45
same,"Plant response rating, Blackgrass",blackgrass; [4],45
same,"Plant response rating, Blackgrass",blackgrass; [7],45
same,"Plant response rating, Blackgrass",blackgrass; [5],45
same,"Plant response rating, Foxtail, Green","green foxtail; 62 g ai/ha, scale 0 to 100",10
same,"Plant response rating, Foxtail, Green",green foxtail; [9],40
same,"Plant response rating, Foxtail, Green",green foxtail; [10],95
same,"Plant response rating, Bermudagrass","bermudagrass; 62 g ai/ha, scale 0 to 100",80
same,"Plant response rating, Bermudagrass","bermudagrass; 125 g ai/ha, scale 0 to 100",95
same,"Plant response rating, Bermudagrass",bermudagrass; [9],95
same,"Plant response rating, Bermudagrass",bermudagrass; [10],95
same,"Plant response rating, Horseweed","Canada horseweed; 125 g ai/ha, scale 0 to 100",75
same,"Plant response rating, Horseweed",Canada horseweed; [9],95
same,"Plant response rating, Horseweed",Canada horseweed; [10],100
same,"Plant response rating, Bindweed, Field","field bindweed; 62 g ai/ha, scale 0 to 100",80
same,"Plant response rating, Bindweed, Field",field bindweed; [9],80
same,"Plant response rating, Bindweed, Field",field bindweed; [10],95
same,"Plant response rating, Ryegrass, Italian",Italian ryegrass [1]; [4],55
same,"Plant response rating, Ryegrass, Italian",Italian ryegrass [1]; [5],45
same,"Plant response rating, Sandbur","southern sandbur; 62 g ai/ha, scale 0 to 100",10
same,"Plant response rating, Sandbur","southern sandbur; 125 g ai/ha, scale 0 to 100",60
same,"Plant response rating, Sandbur",southern sandbur; [9],70
same,"Plant response rating, Sandbur",southern sandbur; [10],100
same,"Plant response rating, Ragweed","common ragweed; 62 g ai/ha, scale 0 to 100",0
same,"Plant response rating, Ragweed","common ragweed; 125 g ai/ha, scale 0 to 100",10
same,"Plant response rating, Ragweed",common ragweed; [9],40
same,"Plant response rating, Ragweed",common ragweed; [10],40
same,"Plant response rating, Ryegrass, Italian","Italian ryegrass [2]; 62 g ai/ha, scale 0 to 100",20
same,"Plant response rating, Ryegrass, Italian","Italian ryegrass [2]; 125 g ai/ha, scale 0 to 100",75
same,"Plant response rating, Ryegrass, Italian",Italian ryegrass [2]; [9],80
same,"Plant response rating, Ryegrass, Italian",Italian ryegrass [2]; [10],95
same,"Plant response rating, Guineagrass","guineagrass; 62 g ai/ha, scale 0 to 100",95
same,"Plant response rating, Guineagrass","guineagrass; 125 g ai/ha, scale 0 to 100",95
same,"Plant response rating, Guineagrass",guineagrass; [9],95
same,"Plant response rating, Guineagrass",guineagrass; [10],100
same,"Plant response rating, Windgrass",windgrass; [4],45
same,"Plant response rating, Windgrass",windgrass; [5],45
Cc1nn(C(C)(C)C)nc1C(=O)Nc1cccc(C(=O)N2CC=CC2)c1 [Compound 393],"Plant response rating, Blackgrass",blackgrass; [3],65
same,"Plant response rating, Blackgrass",blackgrass; [4],60
same,"Plant response rating, Blackgrass",blackgrass; [7],55
same,"Plant response rating, Blackgrass",blackgrass; [5],60
same,"Plant response rating, Foxtail, Green","green foxtail; 62 g ai/ha, scale 0 to 100",10
same,"Plant response rating, Foxtail, Green","green foxtail; 125 g ai/ha, scale 0 to 100",20
same,"Plant response rating, Foxtail, Green",green foxtail; [9],70
same,"Plant response rating, Foxtail, Green",green foxtail; [10],90
same,"Plant response rating, Bermudagrass","bermudagrass; 62 g ai/ha, scale 0 to 100",40
same,"Plant response rating, Bermudagrass","bermudagrass; 125 g ai/ha, scale 0 to 100",90
same,"Plant response rating, Bermudagrass",bermudagrass; [9],95
same,"Plant response rating, Bermudagrass",bermudagrass; [10],100
same,"Plant response rating, Horseweed","Canada horseweed; 62 g ai/ha, scale 0 to 100",90
same,"Plant response rating, Horseweed","Canada horseweed; 125 g ai/ha, scale 0 to 100",95
same,"Plant response rating, Horseweed",Canada horseweed; [9],100
same,"Plant response rating, Horseweed",Canada horseweed; [10],100
same,"Plant response rating, Bindweed, Field","field bindweed; 62 g ai/ha, scale 0 to 100",0
same,"Plant response rating, Bindweed, Field","field bindweed; 125 g ai/ha, scale 0 to 100",20
same,"Plant response rating, Bindweed, Field",field bindweed; [9],60
same,"Plant response rating, Bindweed, Field",field bindweed; [10],70
same,"Plant response rating, Ryegrass, Italian",Italian ryegrass [1]; [4],60
same,"Plant response rating, Ryegrass, Italian",Italian ryegrass [1]; [5],55
same,"Plant response rating, Sandbur","southern sandbur; 62 g ai/ha, scale 0 to 100",0
same,"Plant response rating, Sandbur","southern sandbur; 125 g ai/ha, scale 0 to 100",50
same,"Plant response rating, Sandbur",southern sandbur; [9],50
same,"Plant response rating, Sandbur",southern sandbur; [10],60
same,"Plant response rating, Ragweed","common ragweed; 62 g ai/ha, scale 0 to 100",0
same,"Plant response rating, Ragweed","common ragweed; 125 g ai/ha, scale 0 to 100",10
same,"Plant response rating, Ragweed",common ragweed; [9],20
same,"Plant response rating, Ragweed",common ragweed; [10],80
same,"Plant response rating, Ryegrass, Italian","Italian ryegrass [2]; 62 g ai/ha, scale 0 to 100",10
same,"Plant response rating, Ryegrass, Italian","Italian ryegrass [2]; 125 g ai/ha, scale 0 to 100",20
same,"Plant response rating, Ryegrass, Italian",Italian ryegrass [2]; [9],85
same,"Plant response rating, Ryegrass, Italian",Italian ryegrass [2]; [10],85
same,"Plant response rating, Guineagrass","guineagrass; 62 g ai/ha, scale 0 to 100",10
same,"Plant response rating, Guineagrass","guineagrass; 125 g ai/ha, scale 0 to 100",70
same,"Plant response rating, Guineagrass",guineagrass; [9],90
same,"Plant response rating, Guineagrass",guineagrass; [10],95
same,"Plant response rating, Windgrass",windgrass; [4],55
same,"Plant response rating, Windgrass",windgrass; [5],45
C=CCNC(=O)c1cccc(NC(=O)c2nn(C(C)(C)C)nc2CC)c1 [Compound 414],Blackgrass plant response rating,"blackgrass; Postemergence, scale 0 to 100",60
same,"Plant response rating, Blackgrass",blackgrass; [3],45
same,"Plant response rating, Blackgrass",blackgrass; [4],40
same,"Plant response rating, Blackgrass",blackgrass; [5],40
same,"Plant response rating, Ryegrass, Italian",Italian ryegrass [1]; [8],60
same,"Plant response rating, Ryegrass, Italian",Italian ryegrass [1]; [4],55
same,"Plant response rating, Ryegrass, Italian",Italian ryegrass [1]; [5],50
same,"Plant response rating, Windgrass",windgrass; [8],65
same,"Plant response rating, Windgrass",windgrass; [4],60
same,"Plant response rating, Windgrass",windgrass; [5],55
